Results reported in paper PMC5838106, “Cathelicidin promotes inflammation by enabling binding of self-RNA to cell surface scavenger receptors” (Scientific Reports, 2018).
Where no end group is shown, it is not given here.

Experiments:
THP1 cells = test: U1 RNA co-association with early endosome (EEA1) in THP1; assay type: cell-based, human; settings: PMA-treated THP1, 37 °C, 4 hours
Protocol: NHEKs were grown on 8-well chamber slides (Thermofisher Scientific). After indicated treatments, cells were fixed in 4% paraformaldehyde (PFA) (Thermofisher Scientific) for 10 minutes and blocked with 3% bovine serum albumin, 0.2 M Glycine (Sigma) with or without 1 mg/mL saponin (Sigma) prior to incubating with primary antibodies followed by appropriate 488- or 568-coupled secondary antibodies, or 488-streptavidin conjugate. Nuclei were counterstained with DAPI. All images were taken with an Olympus BX41 microscope (widefield), Zeiss LSM510 confocal microscope, or Nikon A1R Confocal STORM microscope as indicated.
Figure S2. a) PMA-treated THP1 cultured at 37 °C for 4 hours with U1 RNA and cathelicidin peptides. Early endosomal antigen 1 (EEA1) is stained red, U1 RNA is stained green and nuclei were visualized with DAPI (blue). Scale bar represents 10 μm. b) IL-6 mRNA in NHEKs cultured with FPR1 inhibitor Boc-MLF (1 µM) or FPR2 inhibitor WRW4 (1 µM) for 1 hour, treated with LL37 (2.5 µM) and U1 RNA (2.5 µg/mL) for a further 6 hours. (n = 3). c) IL-6 mRNA in NHEKs cultured with G-protein coupled receptor inhibitor pertussis toxin (0.5 µg/mL) for 1 hour, treated with LL37 (2.5 µM) and U1 RNA (2.5 µg/mL) for a further 6 hours. (n = 3). […]

NHEKs = test: Immunoblotting of TBK1-AKT-IRF3 pathway and p38 MAPK phosphorylation; assay type: cell-based, human; settings: peptide 2.5 μM 10 minutes, then U1 RNA 2.5 μg/mL 30 minutes or 2 hours
From the text: Figure 2 Structure and cell binding of cathelicidin and dsRNA. (a) Structures of LL37, LL34, and LL34(I20P) bound to dsRNA were solved using SAXS. SAXS data is plotted as the scattering intensity I(q) vs. the momentum transfer vector q. LL34 (blue) and LL34(I20P) (green) condense dsRNA into square lattices with first peak positions of q10 = 0.167 Å^−1 and 0.170 Å^−1, respectively. Higher order Bragg reflections due to scattering of the square lattice of LL34 and LL34(I20P) are labeled for both complexes. In comparison, LL37 (magenta) condenses dsRNA into a columnar lattice with short-ranged order, with a first peak position of q1 = 0.172 Å^−1. (b) Linear fits of Bragg peak positions indicate that LL34-dsRNA (blue) and LL34(I20P)-dsRNA (green) complexes have inter-dsRNA spacings of 3.76 nm and 3.70 nm, respectively. Each reflection corresponding to the peaks in a for LL34 and LL34(I20P) are labeled. […]
NHEKs were lysed in a denaturing lysis buffer containing 20 mM HEPES pH 7.4, 250 mM NaCl, 2 mM EDTA, and 1% SDS supplemented with completed proteinase inhibitor cocktail as well as 50 mM sodium floride, 5mM N-ethylmaleimide, 100 μM hemin chloride to maximally preserve protein post-translational modifications as described previously. […] Protein concentrations were measured by BCA protein assay kit (Thermofisher). […]

Substance	co-association of U1 RNA with the early endosome (THP1 cells)	phosphorylation in the TBK1-AKT-IRF3 pathway and p38 MAPK (NHEKs)
LL37	induced partial co-association with the early endosome	increased
LLGDFFRKSKEKIGKEFKRIVQRIKDFLRNLVPR [LL34]	induced partial co-association with the early endosome	increased
